Measurements reported in patent US7326721B2 (Hypnion, Inc., priority 2003, dated 2008).
Several values for one entry are separate records, joined by “and”; a condition that tells them apart may be missing. Equal values may be shown once.

Columns and labels:
[1] = biological target: Cholecystokinin, CCK1 (CCKA) (Homo sapiens, UniProt P32238); test: Table 12 panel: CCK1; conditions: 1.0E−6, average N=2, read-out: percentage inhibition of specific binding
Description: (§1) The percentage inhibition (average; N=2) for these receptors is shown below in Table 12.
(§2) Values in Table 12 are expressed as percentage inhibition of specific binding, and these values represent the average of replicate tubes at each of the concentrations tested.

[2] = test system: T1, Adrenergic, Alpha 2, Non-selective; test: Table 12 panel: Adrenergic, Alpha 2; assay type: binding; conditions: Adrenergic, Alpha 2; 1.0E−6; average N=2
T1 construct: other: Adrenergic, Alpha 2; 1.0E−6; average N=2

GABA A, Agonist Site = test: Table 12 panel: GABA A, Agonist Site; assay type: binding; conditions: 1.0E−6, average N=2
Description: as §1, §2

Testosterone (cytosolic) = Testosterone (cytosolic) (Homo sapiens, UniProt P10275); test: Table 12 panel: Testosterone; conditions: 1.0E−6, average N=2, read-out: percentage inhibition of specific binding
Description: as §1, §2

Glutamate, AMPA Site = test: Table 12 panel: Glutamate, AMPA; assay type: binding; conditions: 1.0E−6, average N=2
Description: as §1, §2

Endothelin, ET-A (h) = Endothelin, ET-A (h) (Homo sapiens, UniProt P25101); test: Table 12 panel: Endothelin, ET-A; conditions: 1.0E−6, average N=2, read-out: percentage inhibition of specific binding
Description: as §1, §2

[3] = biological target: Nitric Oxide, NOS (Neuronal-Binding) (Homo sapiens, UniProt P29475); test: Table 12 panel: NOS; conditions: 1.0E−6, average N=2, read-out: percentage inhibition of specific binding
Description: as §1, §2

Crl:CD-I(ICR)BR mice = test: Acetic acid-induced abdominal spasm test in the mouse; assay type: in vivo; conditions: for Number of abdominal spasms recorded in a 25-minute period: oral
Protocol: The objective of this example was to determine the analgesic activity of HY-2901 (Also referred to herein as Compound 49a) following oral administration. Analgesic activity was assessed abdominal spasm test in the rat and mouse. Analgesic activity is also assessed using the tail clip test in the mouse, tail flick test in the rat, Randall-Selitto test in the rat and comparisons are made with a vehicle control group. Reference compounds ASA (acetylsalicylic acid) and morphine are also included for comparison.
The tail clip and tail flick test provide useful information about the central analgesic activity of the test article. The Randall-Selitto test provides information on the compound's ability to modify a hyperalgesic state and the abdominal spasm test provides information on the peripheral analgesic activity of the test article. The test article is administered by oral gavage, this being the intended clinical route of administration. The dose levels employed are expected to encompass the efficacy dose and provide an adequate safety margin.
All formulations were prepared on each day of dosing. The test article (HY-2901) was formulated in 0.25% (w/v) MC at the highest concentration required. Lower doses were obtained by serial dilution of the highest concentration using 0.25% (w/v) MC. The reference compound, acetylsalicylic acid, was formulated in 0.25% (w/v) MC at the required concentrations. Brewer's yeast was formulated in water for injection at the required concentration. Acetic acid was diluted with water for injection to provide the required concentration for administration.
An adequate number of male Crl:CD-I(ICR)BR mice and Wistar rats were obtained from Charles River (UK) Ltd., Margate, Kent. The mice were approximately 4 weeks of age and weigh between 18 and 22 g on arrival. The rats were approximately 5 weeks of age and weigh between 150 and 170 g on arrival. The age and weight of the animals at the start of the study was documented in the raw data and final report,
Each animal received a single administration of vehicle, test article or reference compound by oral gavage, using a constant dose volume 10 mL/kg. Individual dose volumes were based on individual body weights obtained on the day of dosing.
Forty-five minutes following oral administration each animal received a 0.25 mL intraperitoneal injection of 0.5% acetic acid. Animals were immediately placed into individual observation chambers and the number of abdominal spasms elicited over the subsequent 25-minute period was recorded.

Crl:CD(SD)IGS BR rats = test: 14-day rat study with recovery; assay type: in vivo
Protocol: (§3) The purpose of this study was to evaluate the toxicity of HY2901 when administered via oral gavage to rats for at least 14 days and to assess the reversibility, persistence, or delayed occurrence of any effects after a recovery period of up to 14 days.
(§4) Male and female Crl:CD®(SD)IGS BR rats were assigned to seven groups, four main study groups and three groups for toxicokinetics. Each group received dose preparations containing 0.25% methylcellulose, 400 cps in 200 mM acetate buffer, or 10, 30, or 150 mg of test article/kg of body weight (mg/kg/day) at a dose volume of 5 mL/kg.
(§5) Assessment of toxicity was based on mortality, clinical and ophthalmic observations, body weights, food consumption, clinical pathology, organ weights, and macroscopic and microscopic findings. Blood samples were collected for toxicokinetic evaluation.

[4] = 14-day rat study with recovery; assay type: in vivo; conditions: both sexes, Crl:CD(SD)IGS BR, rat, in vivo, po
Protocol: as §3, §4, §5

Nitric Oxide, NOS (Neuronal-Binding), sequence (P29475 whole entry): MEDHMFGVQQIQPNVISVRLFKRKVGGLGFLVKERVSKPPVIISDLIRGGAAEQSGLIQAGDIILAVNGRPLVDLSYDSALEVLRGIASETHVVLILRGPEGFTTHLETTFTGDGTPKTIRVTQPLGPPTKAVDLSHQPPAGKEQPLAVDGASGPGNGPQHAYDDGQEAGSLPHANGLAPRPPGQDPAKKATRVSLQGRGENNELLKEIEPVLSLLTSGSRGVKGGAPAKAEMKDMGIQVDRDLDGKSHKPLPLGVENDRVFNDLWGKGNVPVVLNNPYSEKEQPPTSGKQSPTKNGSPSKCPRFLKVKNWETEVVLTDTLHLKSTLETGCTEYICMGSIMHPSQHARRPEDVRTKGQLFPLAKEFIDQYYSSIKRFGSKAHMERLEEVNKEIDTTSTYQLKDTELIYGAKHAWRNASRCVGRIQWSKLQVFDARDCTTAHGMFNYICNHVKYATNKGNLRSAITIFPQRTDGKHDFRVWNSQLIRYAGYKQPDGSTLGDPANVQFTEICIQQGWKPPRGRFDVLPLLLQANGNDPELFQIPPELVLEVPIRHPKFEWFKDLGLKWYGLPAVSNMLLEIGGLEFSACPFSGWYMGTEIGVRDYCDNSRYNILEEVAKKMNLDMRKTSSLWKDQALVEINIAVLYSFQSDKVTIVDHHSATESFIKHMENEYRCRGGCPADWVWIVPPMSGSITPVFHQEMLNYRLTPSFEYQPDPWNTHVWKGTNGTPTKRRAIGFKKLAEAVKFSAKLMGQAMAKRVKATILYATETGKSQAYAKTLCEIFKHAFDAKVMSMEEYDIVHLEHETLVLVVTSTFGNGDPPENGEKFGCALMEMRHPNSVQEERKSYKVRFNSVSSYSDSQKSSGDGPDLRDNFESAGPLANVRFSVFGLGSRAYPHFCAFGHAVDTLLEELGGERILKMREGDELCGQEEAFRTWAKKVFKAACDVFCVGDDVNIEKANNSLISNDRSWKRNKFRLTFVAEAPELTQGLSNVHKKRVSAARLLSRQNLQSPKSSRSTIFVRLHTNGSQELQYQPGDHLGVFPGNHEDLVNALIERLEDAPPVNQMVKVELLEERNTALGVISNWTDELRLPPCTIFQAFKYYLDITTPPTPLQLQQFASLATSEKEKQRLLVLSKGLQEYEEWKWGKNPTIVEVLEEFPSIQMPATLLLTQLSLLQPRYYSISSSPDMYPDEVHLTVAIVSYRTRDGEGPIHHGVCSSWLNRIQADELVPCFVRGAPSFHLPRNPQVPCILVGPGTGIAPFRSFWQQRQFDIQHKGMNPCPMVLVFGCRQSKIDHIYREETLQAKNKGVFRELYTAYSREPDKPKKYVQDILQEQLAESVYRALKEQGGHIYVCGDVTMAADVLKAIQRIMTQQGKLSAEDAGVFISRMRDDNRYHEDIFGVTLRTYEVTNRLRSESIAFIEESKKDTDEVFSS
Testosterone (cytosolic), sequence (P10275 whole entry): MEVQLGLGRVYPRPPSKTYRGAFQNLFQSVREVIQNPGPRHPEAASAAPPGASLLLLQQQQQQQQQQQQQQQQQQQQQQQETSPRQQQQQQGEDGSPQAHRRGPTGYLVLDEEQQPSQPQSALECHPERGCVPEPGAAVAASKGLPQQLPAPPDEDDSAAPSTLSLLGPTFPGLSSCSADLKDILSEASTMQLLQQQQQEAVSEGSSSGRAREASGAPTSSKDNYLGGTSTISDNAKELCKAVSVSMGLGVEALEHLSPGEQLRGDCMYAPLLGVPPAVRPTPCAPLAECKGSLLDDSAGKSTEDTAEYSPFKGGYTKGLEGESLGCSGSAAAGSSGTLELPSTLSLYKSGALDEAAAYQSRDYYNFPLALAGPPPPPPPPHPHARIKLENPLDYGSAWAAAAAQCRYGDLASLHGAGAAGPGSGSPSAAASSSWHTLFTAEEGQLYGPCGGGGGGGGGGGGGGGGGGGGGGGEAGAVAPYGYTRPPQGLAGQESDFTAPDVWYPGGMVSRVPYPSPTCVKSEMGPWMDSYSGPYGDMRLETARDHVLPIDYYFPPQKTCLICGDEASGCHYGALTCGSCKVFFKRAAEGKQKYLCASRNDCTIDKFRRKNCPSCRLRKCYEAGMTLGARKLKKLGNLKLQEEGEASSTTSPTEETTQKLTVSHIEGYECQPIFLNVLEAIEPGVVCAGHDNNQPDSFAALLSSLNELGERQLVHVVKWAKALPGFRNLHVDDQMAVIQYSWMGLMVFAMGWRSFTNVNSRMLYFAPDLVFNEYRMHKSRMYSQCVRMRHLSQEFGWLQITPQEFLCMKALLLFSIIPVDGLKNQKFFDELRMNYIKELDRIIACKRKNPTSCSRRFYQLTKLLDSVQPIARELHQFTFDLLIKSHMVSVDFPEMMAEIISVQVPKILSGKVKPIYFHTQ
Cholecystokinin, CCK1 (CCKA), sequence (P32238 whole entry): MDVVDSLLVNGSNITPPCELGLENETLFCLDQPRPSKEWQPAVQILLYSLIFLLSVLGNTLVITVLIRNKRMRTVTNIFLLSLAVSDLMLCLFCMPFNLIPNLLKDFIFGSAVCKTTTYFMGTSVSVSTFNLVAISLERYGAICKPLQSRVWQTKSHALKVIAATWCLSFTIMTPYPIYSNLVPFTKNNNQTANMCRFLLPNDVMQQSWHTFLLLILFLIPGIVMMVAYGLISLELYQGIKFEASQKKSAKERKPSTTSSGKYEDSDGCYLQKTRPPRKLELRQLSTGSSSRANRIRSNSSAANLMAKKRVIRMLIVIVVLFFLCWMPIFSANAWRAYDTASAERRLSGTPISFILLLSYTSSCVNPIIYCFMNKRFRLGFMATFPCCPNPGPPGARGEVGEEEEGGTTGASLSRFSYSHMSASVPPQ
Endothelin, ET-A (h), sequence (P25101 21-427): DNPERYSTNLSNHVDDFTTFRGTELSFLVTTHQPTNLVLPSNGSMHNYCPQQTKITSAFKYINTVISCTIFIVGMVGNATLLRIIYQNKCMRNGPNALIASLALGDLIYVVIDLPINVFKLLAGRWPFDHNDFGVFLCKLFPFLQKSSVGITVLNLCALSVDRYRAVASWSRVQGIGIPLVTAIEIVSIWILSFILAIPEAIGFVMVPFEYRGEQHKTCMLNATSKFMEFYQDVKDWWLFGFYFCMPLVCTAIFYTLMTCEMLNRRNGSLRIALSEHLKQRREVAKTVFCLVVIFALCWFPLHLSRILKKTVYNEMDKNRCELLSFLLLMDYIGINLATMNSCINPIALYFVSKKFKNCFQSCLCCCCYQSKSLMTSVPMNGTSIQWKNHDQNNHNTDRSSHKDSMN

## CC(CC(=O)O)N1CCC(=C2c3ccc(F)cc3COc3ccccc32)CC1 (stereo not drawn) [Compound 37]
[1]
  inhibition at 1 µM: 8.92%
[2]
  percentage inhibition of specific binding: −3.79%
GABA A, Agonist Site
  percentage inhibition of specific binding: 20.18%
Testosterone (cytosolic)
  inhibition at 1 µM: 0.24%
Glutamate, AMPA Site
  percentage inhibition of specific binding: 3.59%
Endothelin, ET-A (h)
  inhibition at 1 µM: 10.2%
[3]
  inhibition at 1 µM: 17.2%

## CC(C)(CN1CCC(=C2c3ccc(F)cc3COc3ccccc32)CC1)C(=O)O [Compound 49a]
Crl:CD-I(ICR)BR mice; oral 3 mg/kg
  Group mean (±sd) number of abdominal spasms recorded in a 25 minute period: 6 ± 6.2
Crl:CD-I(ICR)BR mice; oral 10 mg/kg
  Group mean (±sd) number of abdominal spasms recorded in a 25 minute period: 1 ± 2.0
Crl:CD-I(ICR)BR mice; oral 30 mg/kg
  Group mean (±sd) number of abdominal spasms recorded in a 25 minute period: 0 ± 0.0
Crl:CD-I(ICR)BR mice; 3 mg/kg, individual animal data (animals 7-12), listed as HY-2901, 3 mg/kg
  Number of abdominal spasms recorded in a 25-minute period: 0 (2×) and 1 and 10 and 7 and 15
Crl:CD-I(ICR)BR mice; 10 mg/kg, individual animal data (animals 13-18), listed as HY-2901, 10 mg/kg
  Number of abdominal spasms recorded in a 25-minute period: 0 (4×) and 2 and 5
Crl:CD-I(ICR)BR mice; 30 mg/kg, individual animal data (animals 19-24)
  Number of abdominal spasms recorded in a 25-minute period: 0
Crl:CD(SD)IGS BR rats; 150 mg/kg/day males
  mean body weight: depression in mean body weight of the 150 mg/kg/day males
Crl:CD(SD)IGS BR rats; 150 mg/kg/day males, terminal sacrifice
  mean weights of thymus, lung, and heart: significantly low relative to brain weight
Crl:CD(SD)IGS BR rats; 150 mg/kg/day, Week 1
  food consumption: depression in food consumption in 150 mg/kg/day rats in Week 1
Crl:CD(SD)IGS BR rats; 10, 30, or 150 mg/kg/day
  expected pharmacological effects (clinical signs): hypoactivity, ataxia, and the appearance of sleep, were commonly observed
Crl:CD(SD)IGS BR rats; 10, 30, or 150 mg/kg/day, 14 days
  unscheduled deaths: largely restricted to the 150 mg/kg/day groups
Crl:CD(SD)IGS BR rats; all groups
  ophthalmic observations: No ophthalmic lesions
Crl:CD(SD)IGS BR rats; rat, in vivo
  clinical pathology findings: unrelated to treatment
  increases in Cmax and AUC(0-t) with dose: greater than dose proportional
Crl:CD(SD)IGS BR rats; rats
  accumulation after multiple dosing: Minimum accumulation
Crl:CD(SD)IGS BR rats; terminal and recovery sacrifice rats
  macroscopic and microscopic findings: No treatment-related macroscopic observations or microscopic toxic effects
[4]
  NOAEL at 14 days: 30 mg/kg/day
